“Also recorded” adds a separate entry of the source.
How the values were obtained:
Th17 cells [1] = experiment: RNA-Seq and gene set enrichment analysis, Th17; format: cell-based, mouse
Procedure: ATAC-Seq: Crude nuclei pellets were isolated as described elsewhere (see, e.g., Buenrostro et al., 2013 Nat Meth. 10(12):1213-1218) with modifications. Briefly, naïve CD4 T cells were skewed to Th1 and Th17 subsets in vitro with vehicle or in the presence of 500 nM CB839. At Day 5, T cells were re-isolated for CD4+ cells using Miltenyi CD4+ negative selection kit (Cat #: 130-104-454). 1×10^5 cells were removed for nuclei extraction in ATAC-Seq lysing buffer. Cells were exposed to Tn5+ adaptor proteins from Nextera DNA for 30 min at 37° C. and immediately placed on ice. Transposed eluate was amplified via PCR using Nextera DNA preparation kit (Illumina, Cat #: FC-121-1030), NEBNext High-fidelity 2× PCR mix (New England Labs, Cat #: M0541), and multiplexed (Illumina, Cat #: FC-121-1011). Samples were purified using Zymo DNA cleanup kit (Cat #: D4011). QC of samples was run on bioanalyzer before being sent for sequencing. RNA-Seq: Th1 and Th17 cells skewed with or without CB839 were isolated as previously described and total RNA extracted (Qiagen RNEasy Mini kit, Cat #: 74104). RNA was sent to VANTAGE core at Vanderbilt University and sequenced on HiSeq 2500. n=3 for each sample was analyzed. Samples were analyzed using the R program DESeq2. GSEA was performed using MSigDB.
Th1 and Th17 cells were skewed with or without CB839 over 5 days and total RNA extracted for RNAseq (Cat #: 74104). RNA was sent to VANderbilt Technologies for Advanced GEnomics (VANTAGE) core at Vanderbilt University. Libraries were prepared using 50 ng of total RNA using the NEBNext Ultra RNA Library Kit for Illumina (Cat #E7530) and sequenced on HiSeq3000 at 75 bp paired-end. Each sample was analyzed in triplicate. Sequencing reads were aligned against the Mouse GENCODE genome, Version M14 (Jan. 2017 freeze, GRCm38, Ensembl 89) using the Spliced Transcripts Alignment to a Reference (STAR) software (ref: 26187010 and 23104886). Reads were preprocessed and index using SAMtools (ref: 19505943). Mapped reads were assigned to gene features and quantified using featureCounts (ref: 24227677). Normalization and differential expression was performed using DESeq2 (Love et al., 2014). Skewed lymphocytes with and without CB839 were compared in both Th1 and Th17 groups. […] The top 200 most differentially expressed genes were used for unsupervised hierarchical cluster analysis and visualized using heatmap representations.

Eμ B ALL cells = experiment: In vitro CAR T cell co-culture with target Eμ B ALL cells; format: cell-based, mouse; details: CAR-T cells treated with CB839 before co-culture
Excerpt: T cells were isolated from wild type C57BL6 spleens using the Pan T Cell isolation kit (Cat #: 130-095-130) and were activated on anti-CD3 anti-CD28 coated plates with IL2 for four days with or without CB839. On days 1 and 2, T cells were transduced with retrovirus produced by Plat-E cells carrying the CAR construct targeting CD19 with GFP reporter. On day 4, CAR T cells were washed three times to remove any drug remnants and plated to equal concentrations on a 96 well plate at 5×10^5 cells per well and serial dilutions thereof. 5×10^5 Emu cells, a CD19+ B cell acute lymphoblastic leukemia cell line
(Generously provided by Dr. Davila Lab) were then added to every well to assay cell numbers. CD19+ and GFP+events were stained and counted by flow for each well after 72 hours.

Th1 cells = experiment: CD4 T cells in Th1 skewing conditions, flow cytometry
Th17 cells [2] = experiment: CD4 T cells in Th17 skewing conditions, flow cytometry
[3] = Th17 Cells: Decreased Pathways, HALLMARK_CHOLESTEROL_HOMEOSTASIS
[4] = Th17 Cells: Decreased Pathways, HALLMARK_E2F_TARGETS
[5] = Th17 Cells: Decreased Pathways, HALLMARK_G2M_CHECKPOINT
[6] = Th17 Cells: Decreased Pathways, HALLMARK_GLYCOLYSIS
[7] = Th17 Cells: Decreased Pathways, HALLMARK_IL2_STAT5_SIGNALING
[8] = Th17 Cells: Decreased Pathways, HALLMARK_MTORC1_SIGNALING
[9] = Th17 Cells: Decreased Pathways, HALLMARK_MYC_TARGETS_V1
[10] = Th17 Cells: Decreased Pathways, HALLMARK_MYC_TARGETS_V2
[11] = Th17 Cells: Decreased Pathways, HALLMARK_TNFA_SIGNALING_VIA_NFKB
[12] = Th17 Cells: Decreased Pathways, HALLMARK_UNFOLDED_PROTEIN_RESPONSE
[13] = Th17 Cells: Increased Pathways, HALLMARK_APICAL_JUNCTION
[14] = Th17 Cells: Increased Pathways, HALLMARK_COMPLEMENT
[15] = Th17 Cells: Increased Pathways, HALLMARK_EPITHELIAL_MESENCHYMAL_TRANSITION
[16] = Th17 Cells: Increased Pathways, HALLMARK_HYPOXIA
[17] = Th17 Cells: Increased Pathways, HALLMARK_INFLAMMATORY_RESPONSE
[18] = Th17 Cells: Increased Pathways, HALLMARK_INTERFERON_GAMMA_RESPONSE
[19] = Th17 Cells: Increased Pathways, HALLMARK_MYOGENESIS
[20] = Th17 Cells: Increased Pathways, HALLMARK_P53_PATHWAY
[21] = Th17 Cells: Increased Pathways, HALLMARK_TNFA_SIGNALING_VIA_NFKB
[22] = Th17 Cells: Increased Pathways, HALLMARK_XENOBIOTIC_METABOLISM

O=C(Cc1cccc(OC(F)(F)F)c1)Nc1ccc(CCCCc2nnc(NC(=O)Cc3ccccn3)s2)nn1 [CB839]
compensation by GLS2 at the RNA level (Th17 cells [1]; Th17, CB839-treated): No compensation by GLS2 at the RNA level | direction of the 200 genes with the most altered expression (Th17 cells [1]; Th17, CB839 vs vehicle): more of the most changed genes were downregulated; also recorded: more of these genes were downregulated | gene set enrichment: cell cycle, mTORC1, Myc, IL2 signaling pathways (Th17 cells [1]; Th17, CB839 vs vehicle): downregulated | # Genes in Overlap (k) (Th17 cells [1]; [3]): 25 | k/K (Th17 cells [1]; [3]): 0.3378 | # Genes in Overlap (k) (Th17 cells [1]; [4]): 107 | k/K (Th17 cells [1]; [4]): 0.535 | # Genes in Overlap (k) (Th17 cells [1]; [5]): 94 | k/K (Th17 cells [1]; [5]): 0.47 | # Genes in Overlap (k) (Th17 cells [1]; [6]): 31 | k/K (Th17 cells [1]; [6]): 0.155 | # Genes in Overlap (k) (Th17 cells [1]; [7]): 39 | k/K (Th17 cells [1]; [7]): 0.195 | # Genes in Overlap (k) (Th17 cells [1]; [8]): 70 | k/K (Th17 cells [1]; [8]): 0.35 | # Genes in Overlap (k) (Th17 cells [1]; [9]): 75 | k/K (Th17 cells [1]; [9]): 0.375 | # Genes in Overlap (k) (Th17 cells [1]; [10]): 31 | k/K (Th17 cells [1]; [10]): 0.5345 | # Genes in Overlap (k) (Th17 cells [1]; [11]): 34 | k/K (Th17 cells [1]; [11]): 0.17 | # Genes in Overlap (k) (Th17 cells [1]; [12]): 29 | k/K (Th17 cells [1]; [12]): 0.2566 | # Genes in Overlap (k) (Th17 cells [1]; [13]): 19 | k/K (Th17 cells [1]; [13]): 0.095 | # Genes in Overlap (k) (Th17 cells [1]; [14]): 17 | k/K (Th17 cells [1]; [14]): 0.085 | # Genes in Overlap (k) (Th17 cells [1]; [15]): 16 | k/K (Th17 cells [1]; [15]): 0.08 | # Genes in Overlap (k) (Th17 cells [1]; [16]): 15 | k/K (Th17 cells [1]; [16]): 0.075 | # Genes in Overlap (k) (Th17 cells [1]; [17]): 16 | k/K (Th17 cells [1]; [17]): 0.08 | # Genes in Overlap (k) (Th17 cells [1]; [18]): 25 | k/K (Th17 cells [1]; [18]): 0.125 | # Genes in Overlap (k) (Th17 cells [1]; [19]): 18 | k/K (Th17 cells [1]; [19]): 0.09 | # Genes in Overlap (k) (Th17 cells [1]; [20]): 19 | k/K (Th17 cells [1]; [20]): 0.095 | # Genes in Overlap (k) (Th17 cells [1]; [21]): 17 | k/K (Th17 cells [1]; [21]): 0.085 | # Genes in Overlap (k) (Th17 cells [1]; [22]): 17 | k/K (Th17 cells [1]; [22]): 0.085 | elimination of B cell leukemia cells in vitro (Eμ B ALL cells): greater ability to eliminate B cell leukemia cells in vitro | Myc protein (Th1 cells; Th1): modestly increased Myc | H3K27 tri-methylation, initially (Th1 cells; Th1, Day 3): increased H3K27 tri-methylation | proliferation (Th1 cells; Th1, after three days in culture): impaired proliferation | ROS (DCFDA) (Th1 cells; Th1, day 5): ROS increased | expression of KLRG1 and PD1 (Th1 cells; Th1, day 5): increased expression of KLRG1 and PD1 | global H3K27 trimethylation (Th1 cells; Th1, day 5, normalized to total H3): decreased | phospho-S6 (Th1 cells; Th1, day 5, with IL2): increased phosphor-S6; also recorded: increased phospho-S6 | ROS (DCFDA) (Th1 cells; Th1, day 5, listed as CD839): increased ROS | global H3K4 trimethylation (Th1 cells; Th1, day five): decreased; also recorded: reduced | proliferation (Th1 cells; Th1, day five): partially recovered proliferation by day five | total rRNA levels per cell (Th1 cells; Th1, day five): increased | H3K27 methylation in the absence of IL2 (Th1 cells; Th1 skewing conditions, no IL2): hypermethylated H3K27 | Th1 cytokine production and differentiation (Th1 cells; Th1 skewing, 5 days, CB839 vs vehicle): increased; also recorded: appeared to increase Th1 cytokine secretion | induction of Treg (Foxp3) (Th1 cells; under Th1 conditions): failed to do so | Myc protein (Th17 cells [2]; Th17): modestly increased Myc in Th1 but not Th17 cells | proliferation (Th17 cells [2]; Th17): decreased cytokine production and proliferation only from Th17 cells | H3K27 tri-methylation, initially (Th17 cells [2]; Th17, Day 3): increased H3K27 tri-methylation | proliferation (Th17 cells [2]; Th17, after three days in culture): impaired proliferation | ROS (DCFDA) (Th17 cells [2]; Th17, day 5): ROS increased | expression of KLRG1 and PD1 (Th17 cells [2]; Th17, day 5): decreased or unchanged | global H3K27 trimethylation (Th17 cells [2]; Th17, day 5, normalized to total H3): increased | phospho-S6 (Th17 cells [2]; Th17, day 5, with IL2): decreased phosphor-S6; also recorded: decreased phospho-S6 | ROS (DCFDA) (Th17 cells [2]; Th17, day 5, listed as CD839): increased ROS | global H3K4 trimethylation (Th17 cells [2]; Th17, day five): increased | total rRNA levels per cell (Th17 cells [2]; Th17, day five): decreased | Th17 cytokine production and differentiation (Th17 cells [2]; Th17 skewing, 5 days, CB839 vs vehicle): decreased cytokine production and proliferation only from Th17 cells | induction of Treg (Foxp3) (Th17 cells [2]; under Th17 conditions): failed to do so

From US20190269705A1, “METHODS AND MATERIALS FOR TREATING GRAFT VERSUS HOST DISEASE” (Regents of the University of Minnesota, priority 2017, published 2019)
